Laboratory results taken from US20040006777A1, “Human lymphoid protein tyrosine phosphatases” (HSC Research and Development Limited Partnership, priority 1998, published 2004).

Key:
Cbl = settings: Jurkat cells, pervanadate treatment; cited from earlier work
Lyp1 = molecular target: T1, Lyp1 (Homo sapiens, UniProt Q9Y2R2); assay: In vitro phosphatase assay with 33P labelled Raytide peptide and Lyp immunoprecipitates; type: biochemical; settings: data not shown
T1 construct: made in house; host or cells: COS cells (transient transfection, pcDNA3); anti-T7 immunoprecipitate
T1 sequence (Q9Y2R2 1-807): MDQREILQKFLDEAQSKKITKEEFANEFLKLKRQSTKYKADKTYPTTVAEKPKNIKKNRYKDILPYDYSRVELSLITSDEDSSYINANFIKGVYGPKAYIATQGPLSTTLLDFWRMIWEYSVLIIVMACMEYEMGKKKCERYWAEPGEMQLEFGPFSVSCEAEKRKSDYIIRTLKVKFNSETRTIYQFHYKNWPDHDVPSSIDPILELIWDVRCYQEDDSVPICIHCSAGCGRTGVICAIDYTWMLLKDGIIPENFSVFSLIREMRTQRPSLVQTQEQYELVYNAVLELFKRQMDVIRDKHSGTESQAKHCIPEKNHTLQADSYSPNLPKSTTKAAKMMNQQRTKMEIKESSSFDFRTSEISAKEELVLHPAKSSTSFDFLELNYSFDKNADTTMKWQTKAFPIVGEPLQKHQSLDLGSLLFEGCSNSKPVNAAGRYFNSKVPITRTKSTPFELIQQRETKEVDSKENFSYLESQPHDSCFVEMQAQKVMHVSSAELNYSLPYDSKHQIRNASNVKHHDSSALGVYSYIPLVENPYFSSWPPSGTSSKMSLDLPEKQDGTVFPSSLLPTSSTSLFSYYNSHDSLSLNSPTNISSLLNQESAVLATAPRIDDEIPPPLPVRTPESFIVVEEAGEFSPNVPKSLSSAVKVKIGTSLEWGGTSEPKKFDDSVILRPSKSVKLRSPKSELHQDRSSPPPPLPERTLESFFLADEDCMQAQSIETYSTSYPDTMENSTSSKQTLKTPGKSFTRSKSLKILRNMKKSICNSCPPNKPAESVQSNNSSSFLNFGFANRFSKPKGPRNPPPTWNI
Procedure: Anti-Lyp immunoprecipitates from untransfected and pcDNA3-Lyp1 transfected cells were prepared in pervanadate free lysis buffer and incubated with ^33P labelled substrate Raytide. At the indicated time points reactions were stopped by the addition of charcoal and the free ^33P released from the peptide and now present in the supernatant measured by liquid scintillation counting.
Raytide peptide was ^33P labelled on tyrosine residues in vitro using the tyrosine kinase p60src and purified on phosphocellulose paper. Release of ^33P over time was measured in the phosphatase assay and compared to controls from untransfected cells.
Specifically, the synthetic peptide Raytide was phosphorylated according to the method described by Guan et al., (1994)(54), on tyrosine by p60src (Oncogene Science) as follows: 10 μg Raytide in 50 mM Hepes pH 7.5, 10 mM MgCl2, 0.067% mercaptoethanol, 0.05 mM ATP was incubated with 300 μCiγ^33P ATP per ml and 2 μg p60src in a final volume of 30 μl. The reaction was allowed to proceed for 30 minutes at 30° C. and was stopped by the addition of […] 10% phosphoric acid.
The sample was spotted onto two 1×1 cm sheets of P81 phophocellulose paper and extensively washed with 0.5% phosphoric acid. […]
The phosphorylated substrate was used in the phosphatase assay as described by Stueli et al (1989)(54). […] After centrifugation the free ^33P in the supernatant was measured.

For pervanadate [reference compound], the “phosphorylation of Cbl” value (Cbl) is given as “marked increase” and the “inhibition of Lyp tyrosine phosphatase activity” value (Lyp1) is given as “completely inhibited”.
